In one assay the target is BRD4 (His-Brd4(44-477)) (Homo sapiens (Human), UniProt O60885). The assay is described as follows: TR-FRET in-vitro binding assay for BRD4. To be noted: single determination or n ≧ 2 independent determinations, read-out: Biochemical IC50 BRD4. The method, boiled down: (§1)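 In this TR-FRET format, each compound was tested as an 8-point dilution series, single point per concentration, dispensed from 90% DMSO solution. Incubation lasted 35 minutes at 30° C.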
(In general: TR-FRET usually uses a lanthanide donor and a delayed reading to cut background.)

Another assay has as its target BRD2 (His-Brd2(60-472)) (Homo sapiens (Human), UniProt P25440). In words: TR-FRET in-vitro binding assay for BRD2. The settings on record: single determination or n ≧ 2 independent determinations, read-out: Biochemical IC50 BRD2. The method, boiled down: as §1
A further assay deals with BRD3 (His-Brd3(20-477)) (Homo sapiens (Human), UniProt Q15059). In words: TR-FRET in-vitro binding assay for BRD3. To be noted: single determination or n ≧ 2 independent determinations, read-out: Biochemical IC50 BRD3. The method, boiled down: as §1
BRD3 (His-Brd3(20-477)), sequence (Q15059 20-477): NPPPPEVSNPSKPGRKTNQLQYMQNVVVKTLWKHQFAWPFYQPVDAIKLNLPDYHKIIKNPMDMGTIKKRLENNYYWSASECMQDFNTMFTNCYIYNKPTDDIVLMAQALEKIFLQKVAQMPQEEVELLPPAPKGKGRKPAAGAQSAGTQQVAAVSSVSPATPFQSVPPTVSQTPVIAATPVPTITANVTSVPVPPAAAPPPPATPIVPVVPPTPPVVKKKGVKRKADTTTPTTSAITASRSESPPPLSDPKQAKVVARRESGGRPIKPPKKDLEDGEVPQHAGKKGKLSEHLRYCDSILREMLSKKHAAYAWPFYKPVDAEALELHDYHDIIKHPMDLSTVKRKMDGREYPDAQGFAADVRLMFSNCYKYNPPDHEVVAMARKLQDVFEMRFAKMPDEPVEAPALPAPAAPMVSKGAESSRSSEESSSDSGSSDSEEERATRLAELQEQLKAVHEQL
Assay [1] has as its target CREBBP bromodomain (His-CREBBP(1081-1197)) (Homo sapiens (Human), UniProt Q92793). The assay is described as follows: AlphaScreen in-vitro binding assay for CREBBP. The settings on record: single determination or n ≧ 2 independent determinations, read-out: Biochemical IC50 CREBBP. The method, boiled down:
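Detection used nickel-chelate acceptor plus streptavidin donor AlphaScreen beads, 1 h room temperature. Percent inhibition fitted by non-linear regression to IC50.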

The subject of another assay is THP-1 cells. The assay is described as follows: Cell growth inhibition assay (CellTiter-Glo), THP-1.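 On all read-outs here: viability read as cellular ATP luminescence after 4 days, 3-fold dilution series from 10 µM, DMSO vehicle-treated cells taken as 100%, cell-free medium wells as −100%.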 The settings on record: for GI50: Homo sapiens, THP-1, read-out: THP-1 GI50; for THP-1 TGI: THP-1 cells, total growth inhibition, CellTiter-Glo. (ATP-based viability assays read luminescence as a measure of living cells.)
A further assay has as its system K-562 cells. The assay is described as follows: Cell growth inhibition assay (CellTiter-Glo), K-562.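 On all read-outs here: cellular ATP measured by luminescence after 4 days of exposure, 3-fold dilution series from 10 µM, DMSO vehicle-treated cells define 100%, cell-free medium wells −100%.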 The settings on record: for GI50: Homo sapiens, K562, read-out: K-562 GI50; for K-562 TGI: K-562 cells, total growth inhibition, CellTiter-Glo.
The subject of a further assay is MV-4-11 cells. In words: Cell growth inhibition assay (CellTiter-Glo), MV-4-11.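 On all read-outs here: cellular ATP luminescence after 4 days, 3-fold dilution series from 10 µM top dose, vehicle (0.1% DMSO) set to 100%, cell-free medium set to −100%, day 0 corrected.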 To be noted: for GI50: Homo sapiens, MV4-11, read-out: MV-4-11 GI50; for MV-4-11 TGI: MV-4-11 cells, total growth inhibition, CellTiter-Glo.

A value given as a limit tells only on which side of the number the result lay.

CREBBP bromodomain (His-CREBBP(1081-1197)), sequence (Q92793 1081-1197): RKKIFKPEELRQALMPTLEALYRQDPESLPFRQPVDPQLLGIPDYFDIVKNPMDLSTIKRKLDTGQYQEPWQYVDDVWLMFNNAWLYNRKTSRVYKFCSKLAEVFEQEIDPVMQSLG
BRD2 (His-Brd2(60-472)), sequence (P25440 60-472): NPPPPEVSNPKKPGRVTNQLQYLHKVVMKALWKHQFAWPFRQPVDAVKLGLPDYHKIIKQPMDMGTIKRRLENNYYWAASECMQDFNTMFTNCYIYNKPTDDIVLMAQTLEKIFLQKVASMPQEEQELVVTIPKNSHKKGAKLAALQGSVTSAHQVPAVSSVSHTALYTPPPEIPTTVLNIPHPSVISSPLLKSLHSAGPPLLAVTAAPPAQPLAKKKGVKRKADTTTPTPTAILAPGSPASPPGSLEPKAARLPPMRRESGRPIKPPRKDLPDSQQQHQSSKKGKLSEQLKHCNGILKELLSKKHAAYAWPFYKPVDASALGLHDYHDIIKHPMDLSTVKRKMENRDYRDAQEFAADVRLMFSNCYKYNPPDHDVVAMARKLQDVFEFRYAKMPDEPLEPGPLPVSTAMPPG

Broadly, the IC50 is the concentration at which inhibition is half-maximal. What is called GI50 is the concentration giving 50% growth inhibition. For `COc1cc(N2C(=O)c3nc(C4CCN(C)CC4)n(C(C)C)c3C2c2ccc(Cl)cc2)cc2c1nnn2C` (stereo not shown) [Example 97], the IC50 came out at 23.5 nM on BRD4 (His-Brd4(44-477)), 58 nM at BRD2 (His-Brd2(60-472)), 35.5 nM on BRD3 (His-Brd3(20-477)) and 15600 nM in assay [1]. In addition, the GI50 with THP-1 cells stood at 148 nM; with K-562 cells, 596 nM; in the assay with MV-4-11 cells it was 38.4 nM. Besides, in the assay with THP-1 cells, the “THP-1 TGI” value stood at 432 nM. Besides, the “K-562 TGI” value with K-562 cells is more than 10000 nM. For the same molecule, the “MV-4-11 TGI” value in the assay with MV-4-11 cells was determined as 90.2 nM.
Take `Cc1cc(N2C(=O)c3nc(C4CCN(C)CC4)n(C(C)C)c3C2c2ccc(Cl)cc2)cn2c(C)nnc12` (stereo not shown) [Example 98, 6-(4-chlorophenyl)-5-(3,8-dimethyl-[1,2,4]triazolo[4,3-a]pyridin-6-yl)-1-isopropyl-2-(1-methylpiperidin-4-yl)-5,6-dihydropyrrolo[3,4-d]imidazol-4(1H)-one]: the IC50 turned out to be 15 nM on BRD4 (His-Brd4(44-477)), 28 nM at BRD2 (His-Brd2(60-472)), 23 nM at BRD3 (His-Brd3(20-477)) and 2900 nM in assay [1]. The GI50 was 472 nM in the assay with THP-1 cells, 3630 nM with K-562 cells and 126 nM with MV-4-11 cells. In addition, in the assay with THP-1 cells, the “THP-1 TGI” value came out at 2140 nM. The “K-562 TGI” value in the assay on K-562 cells is more than 10000 nM. In addition, the “MV-4-11 TGI” value in the assay with MV-4-11 cells was found to be 282 nM.
Take `Cc1cc(N2C(=O)c3nc(C4=CCOCC4)n(C(C)C)c3C2c2ccc(Cl)cc2)nn2c(C)nnc12` (stereo not shown) [Example 100, 6-(4-chlorophenyl)-2-(3,6-dihydro-2H-pyran-4-yl)-5-(3,8-dimethyl-[1,2,4]triazolo[4,3-b]pyridazin-6-yl)-1-isopropyl-5,6-dihydropyrrolo[3,4-d]imidazol-4(1H)-one]: the IC50 on BRD4 (His-Brd4(44-477)) was 26.5 nM; at BRD2 (His-Brd2(60-472)), 63 nM; on BRD3 (His-Brd3(20-477)) it was 25 nM; in assay [1] it was more than 37000 nM. Moreover, the figures for the GI50 in the assay on THP-1 cells, in the assay with K-562 cells and in the assay on MV-4-11 cells were 7.22 nM, 42.9 nM and 4.96 nM, respectively. Further, the “THP-1 TGI” value in the assay with THP-1 cells is 26.7 nM. In addition, in the assay with K-562 cells, the “K-562 TGI” value was more than 10000 nM. Moreover, the “MV-4-11 TGI” value in the assay with MV-4-11 cells was determined as 13.8 nM.
Consider `Cc1cc(N2C(=O)c3nc(C4CCOCC4)n(C(C)C)c3C2c2ccc(Cl)cc2)nn2c(C)nnc12` (stereo not shown) [Example 101, 6-(4-chlorophenyl)-5-(3,8-dimethyl-[1,2,4]triazolo[4,3-b]pyridazin-6-yl)-1-isopropyl-2-(tetrahydro-2H-pyran-4-yl)-5,6-dihydropyrrolo[3,4-d]imidazol-4(1H)-one], for which the IC50 on BRD4 (His-Brd4(44-477)) turned out to be 23 nM; at BRD2 (His-Brd2(60-472)), 34 nM; on BRD3 (His-Brd3(20-477)), 24 nM; in assay [1] it was 19600 nM. Also, the figures for the GI50 in the assay on THP-1 cells, in the assay on K-562 cells and in the assay with MV-4-11 cells were 3.49 nM, 15.5 nM and 1.86 nM, respectively. In addition, the “THP-1 TGI” value in the assay with THP-1 cells came to 11.05 nM. For the same molecule, the “K-562 TGI” value in the assay on K-562 cells was more than 10000 nM. Besides, the “MV-4-11 TGI” value with MV-4-11 cells is 4.11 nM.
For `Cc1cc(N2C(=O)c3nc(C4CCOCC4)n(C(C)C)c3[C@H]2c2ccc(Cl)cc2)nn2c(C)nnc12` [Example 102, (R)-6-(4-chlorophenyl)-5-(3,8-dimethyl-[1,2,4]triazolo[4,3-b]pyridazin-6-yl)-1-isopropyl-2-(tetrahydro-2H-pyran-4-yl)-5,6-dihydropyrrolo[3,4-d]imidazol-4(1H)-one], the IC50 at BRD4 (His-Brd4(44-477)) stood at 15 nM; on BRD2 (His-Brd2(60-472)) it was 20 nM; on BRD3 (His-Brd3(20-477)), 17 nM; in assay [1], 17400 nM. In addition, the GI50 turned out to be 2.95 nM in the assay on THP-1 cells, 13.4 nM in the assay on K-562 cells and 1.38 nM in the assay with MV-4-11 cells. In the assay on THP-1 cells, the “THP-1 TGI” value is 10.51 nM. Further, the “K-562 TGI” value in the assay on K-562 cells is more than 10000 nM. Besides, the “MV-4-11 TGI” value with MV-4-11 cells amounted to 4.435 nM.
For the molecule `Cc1cc(N2C(=O)c3nc(C4=CCOCC4)n(C(C)C)c3[C@H]2c2ccc(Cl)cc2)nn2c(C)nnc12` [Example 103, (R)-6-(4-chlorophenyl)-2-(3,6-dihydro-2H-pyran-4-yl)-5-(3,8-dimethyl-[1,2,4]triazolo[4,3-b]pyridazin-6-yl)-1-isopropyl-5,6-dihydropyrrolo[3,4-d]imidazol-4(1H)-one], the IC50 is less than 11 nM at BRD4 (His-Brd4(44-477)), less than 11 nM at BRD2 (His-Brd2(60-472)), less than 11 nM at BRD3 (His-Brd3(20-477)) and more than 37000 nM in assay [1]. Also, the GI50 in the assay with THP-1 cells worked out at 3.47 nM; with K-562 cells, 12.4 nM; with MV-4-11 cells, 2.09 nM. Moreover, the “THP-1 TGI” value with THP-1 cells was determined as 10.55 nM. The “K-562 TGI” value with K-562 cells is more than 10000 nM. For the same molecule, the “MV-4-11 TGI” value in the assay on MV-4-11 cells is 3.945 nM.
As for `Cc1cc(N2C(=O)c3nc(C4CCN(CC(C)(C)C)CC4)n(C(C)C)c3C2c2ccc(Cl)cc2)cn2c(C)nnc12` (stereo not shown) [Example 104, 6-(4-chlorophenyl)-5-(3,8-dimethyl-[1,2,4]triazolo[4,3-a]pyridin-6-yl)-1-isopropyl-2-(1-neopentylpiperidin-4-yl)-5,6-dihydropyrrolo[3,4-d]imidazol-4(1H)-one], the IC50 at BRD4 (His-Brd4(44-477)) is 24.5 nM; on BRD2 (His-Brd2(60-472)), 41 nM; at BRD3 (His-Brd3(20-477)), 33 nM; in assay [1], 2800 nM. For the same molecule, the GI50 in the assay with THP-1 cells came out at 21.2 nM; in the assay on K-562 cells, 53.4 nM; in the assay on MV-4-11 cells it was 8.21 nM. Also, in the assay with THP-1 cells, the “THP-1 TGI” value was determined as 53.95 nM. Further, the “K-562 TGI” value with K-562 cells was more than 10000 nM. Also, the “MV-4-11 TGI” value with MV-4-11 cells is 18.7 nM.
As for `Cc1cc(N2C(=O)c3ncn(C(C)C)c3C2c2ccc(Cl)cc2)cc2c1nnn2C` (stereo not shown) [Example 106, 6-(4-chlorophenyl)-5-(1,4-dimethyl-1H-benzo[d][1,2,3]triazol-6-yl)-1-isopropyl-5,6-dihydropyrrolo[3,4-d]imidazol-4(1H)-one], the IC50 at BRD4 (His-Brd4(44-477)) amounted to 40.5 nM; at BRD2 (His-Brd2(60-472)) it was 90 nM; at BRD3 (His-Brd3(20-477)), 41.5 nM; in assay [1] it was 7200 nM. Besides, the results for the GI50 in the assay with THP-1 cells, with K-562 cells and in the assay with MV-4-11 cells were 50.1 nM, 92.5 nM and 19.3 nM, respectively. Besides, in the assay on THP-1 cells, the “THP-1 TGI” value is 86.8 nM. In addition, the “K-562 TGI” value in the assay with K-562 cells is more than 10000 nM. The “MV-4-11 TGI” value with MV-4-11 cells was 34.7 nM.
For `Cc1cc(N2C(=O)c3nc(C4CC4)n(C(C)C)c3[C@H]2c2ccc(Cl)cc2)cn2c(C)nnc12` [Example 107, (R)-6-(4-chlorophenyl)-2-cyclopropyl-5-(3,8-dimethyl-[1,2,4]triazolo[4,3-a]pyridin-6-yl)-1-isopropyl-5,6-dihydropyrrolo[3,4-d]imidazol-4(1H)-one], the IC50 was found to be 23 nM at BRD4 (His-Brd4(44-477)), 28 nM at BRD2 (His-Brd2(60-472)), 23 nM on BRD3 (His-Brd3(20-477)) and 1450 nM in assay [1]. Besides, the GI50 with THP-1 cells was determined as 11.2 nM; in the assay with K-562 cells, 41.8 nM; in the assay on MV-4-11 cells, 4.84 nM. For the same molecule, in the assay with THP-1 cells, the “THP-1 TGI” value was 23.75 nM. Also, the “K-562 TGI” value with K-562 cells is more than 10000 nM. Besides, the “MV-4-11 TGI” value with MV-4-11 cells was 9.71 nM.
In the case of `COc1cc(N2C(=O)c3nc(C4CCOCC4)n(C(C)C)c3[C@H]2c2ccc(Cl)cc2)cc2c1nnn2C` [Example 108], the IC50 is 61 nM at BRD4 (His-Brd4(44-477)), 180 nM at BRD2 (His-Brd2(60-472)), 74 nM on BRD3 (His-Brd3(20-477)) and 9750 nM in assay [1]. Further, the GI50 worked out at 47.4 nM in the assay with THP-1 cells, 132 nM with K-562 cells and 20.7 nM in the assay on MV-4-11 cells. Also, in the assay on THP-1 cells, the “THP-1 TGI” value was 113 nM. Also, in the assay on K-562 cells, the “K-562 TGI” value was more than 10000 nM. In the assay with MV-4-11 cells, the “MV-4-11 TGI” value is 42.95 nM.

The record behind these values is patent US9890166B2, “Imidazopyrrolidine derivatives and their use in the treatment of disease” (NOVARTIS AG, priority 2013, dated 2018).
